These compounds were tested against T1, P2X7 (UniProt Q99572) (assay: P2X7 pKi of Table 1).
T1 sequence (Q99572 1-595): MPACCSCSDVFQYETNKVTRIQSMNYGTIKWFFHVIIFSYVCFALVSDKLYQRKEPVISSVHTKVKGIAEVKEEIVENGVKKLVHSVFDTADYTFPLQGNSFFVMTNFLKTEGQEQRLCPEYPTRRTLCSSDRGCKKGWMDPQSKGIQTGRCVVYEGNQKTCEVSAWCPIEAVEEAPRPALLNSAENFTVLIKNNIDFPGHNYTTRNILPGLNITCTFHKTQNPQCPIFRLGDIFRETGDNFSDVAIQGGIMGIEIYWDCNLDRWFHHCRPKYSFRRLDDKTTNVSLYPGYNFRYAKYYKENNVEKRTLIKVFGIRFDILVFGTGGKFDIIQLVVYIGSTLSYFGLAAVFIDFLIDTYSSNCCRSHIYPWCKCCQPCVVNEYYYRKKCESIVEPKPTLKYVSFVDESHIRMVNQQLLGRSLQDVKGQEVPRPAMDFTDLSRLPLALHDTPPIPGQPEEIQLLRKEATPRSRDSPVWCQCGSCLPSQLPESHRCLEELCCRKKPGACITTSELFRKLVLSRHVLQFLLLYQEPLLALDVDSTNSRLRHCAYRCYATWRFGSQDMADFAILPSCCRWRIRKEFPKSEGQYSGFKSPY
Format: cell-based
Method in brief: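 Human P2X7 in 1321N1 cells and rat P2X7 in HEK293 cells, loaded with fluo-3 for 1 hr at 37° C, then exposed to antagonist for 20 min at room temperature. BzATP agonist was used at 100 μM final (human) or 5 μM final (rat), with fluorescence read for 5 min. The response was normalized to maximal fluorescence evoked by 5 μM ionomycin.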

Row | SMILES | pKi
1 | Cc1cc(Cl)c(OCC(C)O)cc1NC(=O)C1=CNC(=O)C[C@H]1c1cccc(F)c1 (stereo partly drawn) [Compound 117, (S)-4-(3-Fluoro-phenyl)-6-oxo-1,4,5,6-tetrahydro-pyridine-3-carboxylic acid[4-chloro-5-(2-hydroxy-propoxy)-2-methyl-phenyl]-amide] | 7.06
2 | CCc1cc(Cl)c(OC)cc1NC(=O)C1=CNC(=O)C[C@H]1c1ccc(F)cc1 [Compound 118, (S)-4-(4-Fluoro-phenyl)-6-oxo-1,4,5,6-tetrahydro-pyridine-3-carboxylic acid(4-chloro-2-ethyl-5-methoxy-phenyl)-amide] | 7.075
3 | Cc1ccc(C(C)O)cc1NC(=O)C1=CNC(=O)C[C@H]1c1cccc(F)c1 (stereo partly drawn) [Compound 119, (S)-4-(3-Fluoro-phenyl)-6-oxo-1,4,5,6-tetrahydro-pyridine-3-carboxylic acid[5-(1-hydroxy-ethyl)-2-methyl-phenyl]-amide] | 7.2
4 | Cc1ccc(NC(=O)C2=CNC(=O)C[C@H]2c2cccc(F)c2)cc1C(C)O (stereo partly drawn) [Compound 120, (S)-4-(3-Fluoro-phenyl)-6-oxo-1,4,5,6-tetrahydro-pyridine-3-carboxylic acid[3-(1-hydroxy-ethyl)-4-methyl-phenyl]-amide] | 6.635
5 | Cc1c(NC(=O)C2=CNC(=O)C[C@H]2c2ccc(F)cc2)cc(OCCO)c(F)c1F [Compound 121, (S)-4-(4-Fluoro-phenyl)-6-oxo-1,4,5,6-tetrahydro-pyridine-3-carboxylic acid [3,4-difluoro-5-(2-hydroxy-ethoxy)-2-methyl-phenyl]-amide] | 7.41
6 | COc1cc(C)c(NC(=O)C2=CNC(=O)CC2c2ccc(Cl)cc2)cc1OC (centres unmarked) [Compound 122, 4-(4-Chloro-phenyl)-6-oxo-1,4,5,6-tetrahydro-pyridine-3-carboxylic acid(4,5-dimethoxy-2-methyl-phenyl)-amide] | 6.465
7 | CCc1cc(Cl)c(OCCO)cc1NC(=O)C1=CNC(=O)C[C@H]1c1ccc(F)cc1 [Compound 123, (S)-4-(4-Fluoro-phenyl)-6-oxo-1,4,5,6-tetrahydro-pyridine-3-carboxylic acid[4-chloro-2-ethyl-5-(2-hydroxy-ethoxy)-phenyl]-amide] | 7.293
8 | Cc1cc(Cl)c(CN(CCO)CCO)cc1NC(=O)C1=CNC(=O)C[C@H]1c1ccc(F)cc1 [Compound 124, (S)-4-(4-Fluoro-phenyl)-6-oxo-1,4,5,6-tetrahydro-pyridine-3-carboxylic acid(5-{[bis-(2-hydroxy-ethyl)-amino]-methyl}-4-chloro-2-methyl-phenyl)-amide] | 6.75
9 | COC(=O)COc1cc(NC(=O)C2=CNC(=O)C[C@H]2c2ccc(F)cc2)c(C)cc1Cl [Compound 125, (2-Chloro-5-{[(S)-4-(4-fluoro-phenyl)-6-oxo-1,4,5,6-tetrahydro-pyridine-3-carbonyl]-amino}-4-methyl-phenoxy)-acetic acid methyl ester] | 7.645
10 | COc1cc(C)c(NC(=O)C2=C(C)NC(=O)CC2c2ccc(F)cc2)cc1OC (centres unmarked) [Compound 126, 4-(4-Fluoro-phenyl)-2-methyl-6-oxo-1,4,5,6-tetrahydro-pyridine-3-carboxylic acid (4,5-dimethoxy-2-methyl-phenyl)-amide] | 6.48

Continued, values first:

Row | pKi | SMILES
11 | 5.055 | COc1cc(C)c(NC(=O)C2=C(C)NC(=O)CC2c2ccc(C(F)(F)F)cc2)cc1OC (centres unmarked) [Compound 127, 2-Methyl-6-oxo-4-(4-trifluoromethyl-phenyl)-1,4,5,6-tetrahydro-pyridine-3-carboxylic acid(4,5-dimethoxy-2-methyl-phenyl)-amide]
12 | 6.75 | O=C1C[C@@H](c2ccc(F)cc2)C(C(=O)Nc2cccc(Cl)c2Cl)=CN1 [Compound 128, (S)-4-(4-Fluoro-phenyl)-6-oxo-1,4,5,6-tetrahydro-pyridine-3-carboxylic acid (2,3-dichloro-phenyl)-amide]
13 | 7.265 | Cc1cc(Cl)c(NC(=O)C2=CNC(=O)C[C@H]2c2ccc(F)cc2)cc1OCCO [Compound 129, (S)-4-(4-Fluoro-phenyl)-6-oxo-1,4,5,6-tetrahydro-pyridine-3-carboxylic acid[2-chloro-5-(2-hydroxy-ethoxy)-4-methyl-phenyl]-amide]
14 | 7.2767 | Cc1cc(Cl)c(OCC(=O)N(C)C)cc1NC(=O)C1=CNC(=O)C[C@H]1c1ccc(F)cc1 [Compound 130, (S)-4-(4-Fluoro-phenyl)-6-oxo-1,4,5,6-tetrahydro-pyridine-3-carboxylic acid(4-chloro-5-dimethylcarbamoyl-methoxy-2-methyl-phenyl)-amide]
15 | 6.165 | COc1cc(C)c(NC(=O)C2=CNC(=O)C[C@H]2c2ccc(Cl)cc2)cc1OC [Compound 131, (S)-4-(4-Chloro-phenyl)-6-oxo-1,4,5,6-tetrahydro-pyridine-3-carboxylic acid (4,5-dimethoxy-2-methyl-phenyl)-amide]
16 | 6.38 | COc1cc(C)c(NC(=O)C2=CNC(=O)C[C@@H]2c2ccc(Cl)cc2)cc1OC [Compound 132, (R)-4-(4-Chloro-phenyl)-6-oxo-1,4,5,6-tetrahydro-pyridine-3-carboxylic acid (4,5-dimethoxy-2-methyl-phenyl)-amide]
17 | 6.04 | COc1ccc(NC(=O)C2=CNC(=O)C[C@H]2c2ccc(F)cc2)cc1OC [Compound 133, (S)-4-(4-Fluoro-phenyl)-6-oxo-1,4,5,6-tetrahydro-pyridine-3-carboxylic acid (3,4-dimethoxy-phenyl)-amide]
18 | 6.24 | CNC(=O)COc1cc(NC(=O)C2=CNC(=O)C[C@H]2c2ccc(F)cc2)c(C)cc1Cl [Compound 134, (S)-4-(4-Fluoro-phenyl)-6-oxo-1,4,5,6-tetrahydro-pyridine-3-carboxylic acid(4-chloro-2-methyl-5-methylcarbamoylmethoxy-phenyl)-amide]
19 | 5.8767 | Cc1ccc(C(N)=O)cc1NC(=O)C1=CNC(=O)C[C@H]1c1ccc(F)cc1 [Compound 135, (S)-4-(4-Fluoro-phenyl)-6-oxo-1,4,5,6-tetrahydro-pyridine-3-carboxylic acid(5-carbamoyl-2-methyl-phenyl)-amide]
20 | 5.412 | O=C1CC(c2ccccc2)C(C(=O)NC2CCc3ccccc32)=CN1 (centres unmarked) [Compound 136, 6-Oxo-4-phenyl-1,4,5,6-tetrahydro-pyridine-3-carboxylic acid indan-1-ylamide]
21 | 4.98 | O=C1CC(c2cccc(F)c2)C(C(=O)Nc2cc3c(cc2Cl)OC(F)(F)O3)=CN1 (centres unmarked) [Compound 137, 4-(3-Fluoro-phenyl)-6-oxo-1,4,5,6-tetrahydro-pyridine-3-carboxylic acid(6-chloro-2,2-difluoro-benzo[1,3]dioxol-5-yl)-amide]
22 | 6.69 | O=C1CC(c2ccc(F)cc2)C(C(=O)Nc2cc3c(cc2Br)OCCO3)=CN1 (centres unmarked) [Compound 138, 4-(4-Fluoro-phenyl)-6-oxo-1,4,5,6-tetrahydro-pyridine-3-carboxylic acid(7-bromo-2,3-dihydro-benzo[1,4]dioxin-6-yl)-amide]
23 | 5.46 | O=C1CC(c2ccc(F)cc2)C(C(=O)Nc2cc3c(cc2Cl)OC(F)(F)O3)=CN1 (centres unmarked) [Compound 139, 4-(4-Fluoro-phenyl)-6-oxo-1,4,5,6-tetrahydro-pyridine-3-carboxylic acid(6-chloro-2,2-difluoro-benzo[1,3]dioxol-5-yl)-amide]
